Source: patent US9382204B2, “Inhibitors targeting the DNA-binding domain of human STAT3 for treatment of metastatic cancers” (Indiana University Research and Technology Corporation, priority 2013, dated 2016)
Like-named read-outs stand apart in the source and are kept apart here.

Legend:
Format in all cases: cell-based, human
[1] = system: STAT3; assay: STAT3 dimerization (STAT3c non-reducing PAGE, HA/FLAG co-immunoprecipitation) in H1299 cells; details: 20 μM
Description: To eliminate the possibility that inS3-54 works by off-targeting to the SH2 domain, we tested if inS3-54 inhibits STAT3 dimerization using FLAG-STAT3c, which forms spontaneous homo-dimers via formation of intermolecular disulfide bond.
However, inS3-54 had no effect on production of dimeric STAT3c separated using non-reducing SDS-PAGE or non-denaturing PAGE (FIG. 6B) while S3I-201, a STAT3 inhibitor that binds to the SH2 domain, inhibited STAT3c dimerization (FIG. 6B). To confirm this observation, we performed a co-immunoprecipitation analysis of HA and FLAG-tagged STAT3.

[2] = system: A549 and MDA-MB-231 cells; assay: Luminescence-based glutathione alkylation assay (GSH-Glo); details: 20 μM inS3-54 48 hours, 15 mM iodoacetamide 30 minutes
Description: FIG. 5. Effect of inS3-54 glutathione level. […] (***p<0.001).
To further eliminate the possibility that inS3-54 has alkylating activity, we performed luminescence-based glutathione alkylation assay.

[3] = system: STAT3; assay: STAT3-dependent luciferase reporter assay in MDA-MB-231-STAT3 stable cells; details: 20 μM; for inhibition of luciferase expression compared to DMSO vehicle control: significant = p value less than 0.05; for activity at 20 µM: Homo sapiens
Method: FIG. 12. Identification of active inS3-54 analogues. (A) Effects of inS3-54 analogues on STAT3-dependent luciferase expression. MDA-MB-231 cells with stable STAT3-dependent luciferase expression were treated with DMSO control, 20 μM inSTAT3-54 or its analogues (A1-A79), followed by measurement of luciferase activity. (*p<0.05; **p<0.01; ***p<0.001).
MDA-MB-231-STAT3 stable cell line with high level of STAT3-dependent luciferase expression was exposed to candidate compounds at 20 μM in DMSO for 48 hours based on previous studies, and luciferase activity was measured using a luciferase assay kit (Promega, USA), following manufacturer's instructions. The final DMSO concentration in this and following assays was 0.1% (vol/vol).

[4] = mean of experiments, relative to DMSO

Structure (SMILES)	Rel. luciferase activity (%) 1 ([3]; experiment 1, relative to DMSO) [%]	Rel. luciferase activity (%) 2 ([3]; experiment 2, relative to DMSO) [%]	Rel. luciferase activity (%) 3 ([3]; experiment 3, relative to DMSO) [%]	Rel. luciferase activity (%) Mean [3, 4] [%]	further results
Cc1ccc(S(=O)(=O)OCC(=O)Nc2ccc(C(=O)O)c(O)c2)cc1 [Compound S3I-201, reference compound]					production of dimeric STAT3c ([1]; 24 hrs, non-reducing SDS-PAGE or non-denaturing PAGE): inhibited; co-immunoprecipitation between HA- and FLAG-tagged STAT3 ([1]; H1299 cells): inhibited
NC(=O)CI [iodoacetamide, reference compound]					glutathione level [2]: significantly reduced
O=C(O)c1cc(N2C(=O)C(=Cc3ccc([N+](=O)[O-])cc3)C=C2c2ccccc2)ccc1O [Compound A70]	99.0	97.9	92.8	96.5	
O=C1C(=Cc2ccc([N+](=O)[O-])cc2)C=C(c2ccccc2)N1c1ccc(F)cc1 [Compound A40]	126.5	101.5	43.0	90.3	
O=C1C(=Cc2ccc([N+](=O)[O-])cc2)C=C(c2ccccc2)N1c1ccccc1 [Compound A68]	71.2	84.5	68.7	74.8	inhibition of luciferase expression compared to DMSO vehicle control [3]: significantly inhibited
COc1ccc(C=C2C=C(c3ccccc3)N(c3cccc4ccccc34)C2=O)cc1 [Compound A51]	42.2	71.0	56.6	56.6	inhibition of luciferase expression compared to DMSO vehicle control [3]: significantly inhibited
CCOC(=O)C1=C(C)N(c2ccc(OCC)cc2)C(=O)/C1=C\c1ccc([N+](=O)[O-])cc1 [Compound A79]					inhibition of luciferase expression compared to DMSO vehicle control [3]: significantly inhibited; activity at 20 µM ([3]; experiment 1, relative to DMSO, read-out: Rel. luciferase activity (%) 1): 10.2%; activity at 20 µM ([3]; experiment 2, relative to DMSO, read-out: Rel. luciferase activity (%) 2): 44.8%; activity at 20 µM ([3]; experiment 3, relative to DMSO, read-out: Rel. luciferase activity (%) 3): 55.6%; activity at 20 µM ([3]; mean of experiments, relative to DMSO, read-out: Rel. luciferase activity (%) Mean): 36.9%
CC(=O)c1cccc(N2C(=O)C(=Cc3ccc(Cl)cc3)C=C2c2ccccc2)c1 [Compound A65]	86.6	103.9	91.2	93.9	
Cc1ccc(N2C(=O)C(=Cc3ccc([N+](=O)[O-])cc3)C=C2c2ccccc2)cc1C [Compound A30]	89.6	83.9	61.2	78.2	
COc1cccc(N2C(=O)C(=Cc3ccc(-c4ccc([N+](=O)[O-])cc4)o3)C=C2c2ccccc2)c1 [Compound A12]	34.2	105.8	55.4	65.1	
COc1cccc(N2C(=O)C(=Cc3ccc([N+](=O)[O-])cc3)C=C2c2ccccc2)c1 [Compound A41]	60.5	79.5	81.2	73.7	inhibition of luciferase expression compared to DMSO vehicle control [3]: significantly inhibited
COc1ccc(C=C2C=C(c3ccccc3)N(c3ccc(N(C)C)cc3)C2=O)cc1 [Compound A78]	71.7	107.9	61.0	80.2	
O=C1C(=Cc2ccc(Cl)cc2)C=C(c2ccccc2)N1c1cccc(Cl)c1 [Compound A76]	60.0	151.4	104.0	105.1	
O=C1C(=Cc2ccc(-c3ccc([N+](=O)[O-])cc3)o2)C=C(c2ccccc2)N1c1ccc(Cl)cc1 [Compound A6]	110.9	112.7	71.0	98.2	
CCOC(=O)c1ccc(N2C(=O)C(=Cc3ccc(Cl)cc3)C=C2c2ccccc2)cc1 [Compound A74]	65.9	105.7	74.5	82.0	
CC(=O)c1cccc(N2C(=O)C(=Cc3ccc(-c4ccc([N+](=O)[O-])cc4)o3)C=C2c2ccccc2)c1 [Compound A8]	71.9	102.6	57.5	77.3	
COC(=O)c1ccc(N2C(=O)C(=Cc3ccc(OC)cc3)C=C2c2ccccc2)cc1 [Compound A54]	77.8	100.8	41.7	73.5	
